A word on the EC50: it is the midpoint of the concentration-response curve. The term half-life denotes the time in which the quantity being followed falls by half. A word on the Ki: it is the equilibrium dissociation constant of an inhibitor or competing ligand from its target. As usually defined, the IC50 is the concentration at which inhibition is half-maximal.

We go through 24 compounds from ChEMBL document CHEMBL1681726, “Discovery of orally available tetrahydroquinoline-based glucocorticoid receptor agonists” (Bioorg Med Chem Lett, 2011).

The target in data set [1] is T1, Glucocorticoid receptor (Homo sapiens, UniProt P04150).
T1 sequence (P04150 whole entry): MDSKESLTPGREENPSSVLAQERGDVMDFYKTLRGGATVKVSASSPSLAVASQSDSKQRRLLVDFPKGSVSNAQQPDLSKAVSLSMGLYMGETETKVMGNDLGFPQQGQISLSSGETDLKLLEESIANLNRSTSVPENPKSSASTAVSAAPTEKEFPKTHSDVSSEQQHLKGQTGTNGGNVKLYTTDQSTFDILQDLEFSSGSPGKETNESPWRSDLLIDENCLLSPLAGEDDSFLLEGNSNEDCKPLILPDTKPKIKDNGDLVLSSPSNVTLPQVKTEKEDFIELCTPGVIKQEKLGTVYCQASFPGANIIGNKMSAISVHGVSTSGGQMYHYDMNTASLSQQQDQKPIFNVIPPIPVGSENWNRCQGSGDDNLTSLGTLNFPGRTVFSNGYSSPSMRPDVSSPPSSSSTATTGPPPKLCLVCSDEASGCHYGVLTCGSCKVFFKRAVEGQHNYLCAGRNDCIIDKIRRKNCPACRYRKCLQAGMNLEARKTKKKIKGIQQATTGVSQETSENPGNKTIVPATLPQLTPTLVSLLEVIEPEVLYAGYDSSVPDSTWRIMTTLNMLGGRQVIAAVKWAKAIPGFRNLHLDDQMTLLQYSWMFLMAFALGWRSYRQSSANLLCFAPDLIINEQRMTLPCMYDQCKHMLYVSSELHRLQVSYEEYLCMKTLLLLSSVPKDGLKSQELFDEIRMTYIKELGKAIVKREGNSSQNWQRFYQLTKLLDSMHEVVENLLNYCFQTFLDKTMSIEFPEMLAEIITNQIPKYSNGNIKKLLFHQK
The data set can be described thus: Agonist activity at GR expressed in african green monkey CV1 cells transfected with luciferase gene linked to MMTV promoter assessed as induction of luciferase transactivation activity relative to Dexamethasone. It is filed as functional, cell-based, CV-1.

The nature of data set [2]: Metabolic stability in CD-1 […] liver microsomes by HPLC-MS/MS. It is filed as ADME, Microsome. The settings on record: CD-1, liver microsomes. For orientation: Liver microsomes are a subcellular fraction often used to study metabolism.
The nature of data set [3]: Metabolic stability in human liver microsomes by HPLC-MS/MS. It is filed as ADME, Microsome.
Data set [4] is described as follows: Selectivity ratio of Ki for GR to Ki for PR.
The target of data set [5] is T2, Progesterone receptor (Homo sapiens, UniProt P06401).
T2 sequence (P06401 whole entry): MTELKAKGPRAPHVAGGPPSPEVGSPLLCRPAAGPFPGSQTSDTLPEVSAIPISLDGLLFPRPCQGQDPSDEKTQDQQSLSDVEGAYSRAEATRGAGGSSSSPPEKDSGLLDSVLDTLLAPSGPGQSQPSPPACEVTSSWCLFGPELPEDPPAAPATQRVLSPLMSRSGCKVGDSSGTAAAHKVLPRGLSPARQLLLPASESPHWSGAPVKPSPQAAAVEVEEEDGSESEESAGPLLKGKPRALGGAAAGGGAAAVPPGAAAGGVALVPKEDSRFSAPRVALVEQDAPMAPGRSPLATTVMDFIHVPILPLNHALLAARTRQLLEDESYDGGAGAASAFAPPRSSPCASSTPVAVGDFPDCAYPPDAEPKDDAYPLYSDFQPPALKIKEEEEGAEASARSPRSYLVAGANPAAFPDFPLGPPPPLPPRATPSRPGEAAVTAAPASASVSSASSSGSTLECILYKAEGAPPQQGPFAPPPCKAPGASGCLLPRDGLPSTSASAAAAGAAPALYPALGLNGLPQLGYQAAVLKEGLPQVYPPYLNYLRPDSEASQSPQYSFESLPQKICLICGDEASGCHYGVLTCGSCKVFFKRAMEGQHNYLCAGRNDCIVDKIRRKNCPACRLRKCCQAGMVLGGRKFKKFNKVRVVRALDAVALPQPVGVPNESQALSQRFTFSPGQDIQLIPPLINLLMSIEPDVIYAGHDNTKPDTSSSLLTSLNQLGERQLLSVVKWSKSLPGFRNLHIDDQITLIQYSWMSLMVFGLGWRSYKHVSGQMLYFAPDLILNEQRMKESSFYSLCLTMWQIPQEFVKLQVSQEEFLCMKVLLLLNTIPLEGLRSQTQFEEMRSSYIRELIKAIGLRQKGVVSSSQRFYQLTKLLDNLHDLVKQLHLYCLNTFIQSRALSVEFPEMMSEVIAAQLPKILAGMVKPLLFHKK
Nature of the data set: Binding affinity to PR.

The target of data set [6] is T1, Glucocorticoid receptor. The data set can be described thus: Agonist activity at human GR expressed in NHDF cells assessed as inhibition of IL-6 production by ELISA relative to Dexamethasone. It is filed as functional, cell-based.
For data set [7], the target named is T1, Glucocorticoid receptor. Nature of the data set: Agonist activity at GR expressed in IL-1beta- and TNFalpha-stimulated HepG2 cells assessed as inhibition of NFKB- or AP-1 mediated E-selectin transcription by luciferase reporter gene assay relative to Dexamethasone. It is filed as functional, cell-based. For orientation: In a reporter assay the amount or activity of a reporter protein is the signal.

Data set [8] concerns the target T1, Glucocorticoid receptor. Nature of the data set: Displacement of radiolabeled Dexamethasone from GR.

Each structure is given as a SMILES string.

Turning to `Cc1c(Cl)c(-c2cccc3cc[nH]c23)cc2c1NC(C)(C)[C@H](O)[C@H]2C` (racemic), the half-maximal effective concentration (EC50) in data set [1] was 0.036 µM. Further, the half-life in data set [2] turned out to be 25 min; in data set [3], 21 min. For the same compound, in data set [4], the Ratio Ki is over 100. Moreover, the inhibitory constant (Ki) in data set [5] turned out to be 0.19 µM; in data set [8] it was 0.0018 µM. Moreover, the concentration for half-maximal inhibition (IC50) was found to be 0.026 µM in data set [6] and 0.021 µM in data set [7].
`CC(=O)/C=C/c1c(-c2cccc3cc[nH]c23)cc(C)c2c1[C@H](C)[C@@H](O)C(C)(C)N2` (racemic): the EC50 in data set [1] is 0.112 µM. For the same compound, the IC50 in data set [6] is over 1 µM; in data set [7] it was 0.0078 µM. Also, affinity in data set [8] was put at a Ki of 0.0104 µM.
The like results for `C=Cc1c(-c2cccc3cc[nH]c23)cc(C)c2c1[C@H](C)[C@@H](O)C(C)(C)N2` (racemic) were, in that order, 0.04 µM, over 1 µM, over 1 µM and 0.0196 µM.
The like results for `C[C@H]1c2c(F)c(-c3cccc4cc[nH]c34)c(F)c(F)c2NC(C)(C)[C@@H]1O` (racemic) were, in that order, 0.016 µM, 0.019 µM, 0.0038 µM and 0.005 µM.
In the case of `C=Cc1c(-c2cccc3cc[nH]c23)cc2c(c1C)NC(C)(C)[C@H](O)[C@H]2C` (racemic), the concentration giving a half-maximal response (EC50) in data set [1] was found to be 0.018 µM. Also, the half-maximal inhibitory concentration (IC50) in data set [6] is over 1 µM; in data set [7] it was 0.013 µM. Moreover, affinity in data set [8] was put at a Ki of 0.0031 µM.
The like results for `Cc1cc(-c2cccc3cc[nH]c23)c(/C=N/O)c2c1NC(C)(C)[C@H](O)[C@H]2C` (racemic) were, in that order, 0.105 µM, over 1 µM, 0.011 µM and 0.319 µM.
On to `CO/N=C/c1c(-c2cccc3cc[nH]c23)cc(C)c2c1[C@H](C)[C@@H](O)C(C)(C)N2` (racemic), for which the half-maximal effective concentration (EC50) in data set [1] worked out at 0.0004 µM. The results for the half-inhibitory concentration (IC50) in data set [6] and in data set [7] were 0.0042 µM and 0.0017 µM, respectively. This compound also came in with an inhibition constant (Ki) in data set [8] of 0.0069 µM.
Take `Cc1cc(-c2cccc3cc[nH]c23)c(Cl)c2c1NC(C)(C)[C@H](O)[C@H]2C` (racemic): the values for the half-life in data set [2] and in data set [3] were 3.3 min and 4.7 min, respectively.
Regarding `Cc1cc(-c2cccc3cc[nH]c23)cc2c1NC(C)(C)[C@H](O)[C@H]2C` (racemic), the EC50 in data set [1] turned out to be 0.108 µM. For the same compound, the results for the IC50 in data set [6] and in data set [7] were over 1 µM and 0.021 µM, respectively. In data set [8], the Ki turned out to be 0.009 µM.
The like results for `C[C@H]1c2cc(-c3cccc4cc[nH]c34)c(F)c(F)c2NC(C)(C)[C@@H]1O` (racemic) were, in that order, 0.011 µM, 0.02 µM, 0.0077 µM and 0.0024 µM.
As for `C[C@H]1c2c(cc(Cl)c(-c3cccc4cc[nH]c34)c2Cl)NC(C)(C)[C@@H]1O` (racemic), the EC50 in data set [1] came out at 0.48 µM. The IC50 in data set [6] is over 1 µM; in data set [7], 0.301 µM. Moreover, the affinity in data set [8] corresponds to a Ki of 0.157 µM.
As for `C[C@H]1c2c(Cl)c(-c3cccc4cc[nH]c34)cc(F)c2NC(C)(C)[C@@H]1O` (racemic), the EC50 in data set [1] is 0.089 µM. In addition, the half-life in data set [2] worked out at 3.8 min; in data set [3], 15 min. For the same compound, the IC50 in data set [6] came out at 0.014 µM; in data set [7], 0.017 µM. In data set [8], this compound had a Ki of 0.008 µM.
`Cc1cc(-c2cccc3cc[nH]c23)c(F)c2c1NC(C)(C)[C@H](O)[C@H]2C` (racemic): the EC50 in data set [1] worked out at 0.056 µM. In addition, the IC50 in data set [6] was found to be 0.0071 µM; in data set [7] it was 0.0059 µM. For the same compound, in data set [8], affinity was put at a Ki of 0.0023 µM.
In the case of `Cc1cc(-c2cccc3cc[nH]c23)c(C#N)c2c1NC(C)(C)[C@H](O)[C@H]2C` (racemic), the EC50 in data set [1] worked out at 0.0096 µM. Besides, the half-life in data set [2] and in data set [3] was 13 min throughout. The IC50 in data set [6] was determined as 0.016 µM; in data set [7], 0.0053 µM. Also, the inhibition constant Ki in data set [8] was determined as 0.0013 µM.
Consider `Cc1c(F)c(-c2cccc3cc[nH]c23)cc2c1NC(C)(C)[C@H](O)[C@H]2C` (racemic), for which, in data set [1], the concentration giving a half-maximal response (EC50) was determined as 0.04 µM. In addition, the half-life in data set [2] was determined as 16 min; in data set [3], 17 min. Also, the results for the concentration for half-maximal inhibition (IC50) in data set [6] and in data set [7] were 0.0041 µM and 0.0017 µM, respectively. Moreover, in data set [8], the Ki was determined as 0.0009 µM.
For the compound `CCc1c(-c2cccc3cc[nH]c23)cc(C)c2c1[C@H](C)[C@@H](O)C(C)(C)N2` (racemic), the EC50 in data set [1] came to 0.016 µM. For the same compound, the IC50 in data set [6] was over 1 µM; in data set [7], 0.015 µM. In data set [8], this compound had an inhibition constant Ki of 0.0117 µM.
As for `Cc1c2c(cc(-c3cccc4cc[nH]c34)c1C(F)(F)F)[C@H](C)[C@@H](O)C(C)(C)N2` (racemic), the EC50 in data set [1] was over 1 µM. For the same compound, the IC50 in data set [6] and in data set [7] was over 1 µM each time. The compound also showed a Ki in data set [8] of 0.106 µM.
For `Cc1cc(-c2cccc3cc[nH]c23)c(C)c2c1NC(C)(C)[C@H](O)[C@H]2C` (racemic), in data set [1], the EC50 was determined as 0.0009 µM. In addition, the IC50 in data set [6] is 0.0093 µM; in data set [7], 0.0047 µM. The compound also displayed a Ki in data set [8] of 0.0012 µM.
The like results for `Cc1c(-c2cccc3cc[nH]c23)cc2c(c1C)NC(C)(C)[C@H](O)[C@H]2C` (racemic) were, in that order, 0.205 µM, over 1 µM, 0.042 µM and 0.0383 µM.
With `CCO/N=C/c1c(-c2cccc3cc[nH]c23)cc(C)c2c1[C@H](C)[C@@H](O)C(C)(C)N2` (racemic), the EC50 in data set [1] turned out to be 0.0002 µM. Also, the IC50 turned out to be 0.0034 µM in data set [6] and 0.0009 µM in data set [7]. The compound also returned an inhibition constant Ki in data set [8] of 0.0015 µM.
The like results for `C[C@H]1c2c(F)c(-c3cccc4cc[nH]c34)c(F)c(Cl)c2NC(C)(C)[C@@H]1O` (racemic) were, in that order, 0.0013 µM, 0.016 µM, 0.0039 µM and 0.001 µM.
The like results for `Cc1cc(-c2cccc3cc[nH]c23)c(/C=C/C#N)c2c1NC(C)(C)[C@H](O)[C@H]2C` (racemic) were, in that order, 0.0057 µM, 0.016 µM, 0.0065 µM and 0.0166 µM.
The like results for `Cc1cc(-c2cccc3cc[nH]c23)c(/C=N/OCc2ccccc2)c2c1NC(C)(C)[C@H](O)[C@H]2C` (racemic) were, in that order, 0.0037 µM, 0.0144 µM, 0.0031 µM and 0.0035 µM.
In the case of `Cc1cc(-c2cccc3cc[nH]c23)c(/C=N/OC(C)(C)C)c2c1NC(C)(C)[C@H](O)[C@H]2C` (racemic), the EC50 in data set [1] amounted to 0.034 µM. The IC50 in data set [6] amounted to 0.0038 µM; in data set [7], 0.0055 µM. In data set [8], this compound returned an inhibition constant (Ki) of 0.006 µM.
